Tests used:
2D2 CD4 T cells = assay: 2D2 CD4 T-cell adoptive transfer and challenge; details: amount equimolar to the administered […]-MOG35-55 adduct
[1] = system: OVA protein and OB1 peptide; details: three consecutive injections, C57BL/6J

Substance | division of 2D2 T cells (2D2 CD4 T cells) [%] | IgG antibody responses against OVA protein or OB1 peptide [1]
MOG35-55: amino acids 35-55 of MOG, MEVGWYRSPFSRVVHLYRNGK (SEQ ID NO: 49) (UniProt Q61885 63-83, looked up, fragment) | ≤ 5 | 
OVA protein: free OVA (ovalbumin) protein, equimolar amounts |  | readily produced such antibodies

Source: patent US20230233701A1 (priority 2020, published 2023)
